This is an account of results in patent EP0306300B1, “Pyrrolo(1,2-a)imidazole and imidazo(1,2-a)pyridine derivatives and their use as 5-lipoxygenase pathway inhibitors” (SMITHKLINE BEECHAM CORPORATION, priority 1987, dated 1989).

Molecules are shown by their SMILES. Where two headings read alike, the source gives them in different places. A value given as a limit tells only on which side of the number the result lay.

The test system of series [1] is arachidonic acid-induced edema in mice. Description: Arachidonic acid-induced mouse ear inflammation (ear swelling). It counts as in vivo, male Balb/c mice. The note with it: po; for ED50: mouse, read-out: AAEE(MOUSE ED50 mg/kg (po)). The protocol:
In the tests used to determine activity as 5-lipoxygenase pathway inhibitors, male Balb/c mice (20-28 g), were used. All mice were obtained from Charles River Breeding Laboratories, Kingston, N.Y. Within a single experiment, mice were age matched.
Reagents were employed as follows: Compounds of Formula (I) were each used as the free base. The compounds were homogenized in 0.5% tragacanth. Compounds were administered by […] at the indicated dose in a final volume of 10 ml/kg.
Arachidonic acid in acetone (2 mg/20 »l) was applied to the inner surface of the left ear. The thickness of both ears was then measured with a dial micrometer one hour after treatment, and the data were expressed as the change in thickness (10⁻³ cm) between treated and untreated ears.
Test compounds were given orally in acid/saline at the times indicated in the text prior to the topical application of arachidonic acid.
Dermatol., 82, 367-371 (1984)].

The next series addresses T1, 5-Lipoxygenase (Rattus norvegicus, UniProt P12527).
T1 construct: the supernatant was centrifuged at 100,000 x g for 60 min; host or cells: RBL-1 cells (soluble cell extract, high-speed supernatant)
T1 sequence (P12527 1-673): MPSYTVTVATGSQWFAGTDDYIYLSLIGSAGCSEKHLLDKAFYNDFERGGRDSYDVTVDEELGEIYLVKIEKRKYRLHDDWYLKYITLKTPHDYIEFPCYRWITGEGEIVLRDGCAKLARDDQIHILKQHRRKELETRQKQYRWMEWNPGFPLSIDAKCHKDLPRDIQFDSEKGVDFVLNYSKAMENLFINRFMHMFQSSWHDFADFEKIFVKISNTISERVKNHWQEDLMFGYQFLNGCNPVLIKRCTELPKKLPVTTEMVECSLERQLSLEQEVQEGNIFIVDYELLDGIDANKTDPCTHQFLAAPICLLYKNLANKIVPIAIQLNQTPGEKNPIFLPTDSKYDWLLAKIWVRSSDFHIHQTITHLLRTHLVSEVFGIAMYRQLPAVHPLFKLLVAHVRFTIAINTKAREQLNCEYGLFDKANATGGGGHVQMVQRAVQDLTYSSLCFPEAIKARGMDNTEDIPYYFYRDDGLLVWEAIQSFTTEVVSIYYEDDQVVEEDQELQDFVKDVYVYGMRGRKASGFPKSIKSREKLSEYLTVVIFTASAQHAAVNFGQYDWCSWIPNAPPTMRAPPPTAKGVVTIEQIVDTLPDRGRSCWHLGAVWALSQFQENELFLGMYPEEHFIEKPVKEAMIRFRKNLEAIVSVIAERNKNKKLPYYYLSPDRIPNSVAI
Description: Assay of 5-lipoxygenase activity in RBL-1 high speed supernatant. It counts as biochemical. The settings on record: read-out: 5-LO IC50. On the procedure: For in vitro experiments, compounds were dissolved at appropriate concentrations in ethanol (final concentration 1.0%) and then diluted to final concentrations using the buffers indicated in the text.
The activities of these enzymes in extracts of RBL-1 cells were assayed using the method of Jakschik and Lee, Nature, 287, 51-52 (1980). RBL-1 cells were obtained from the American Type Culture Collection (#CRL 1378) and were grown at 37°C (5% CO₂ in air) in spinner culture in MEM supplemented with 10% heat inactivated fetal calf serum. Harvested cells were washed with 50 mM sodium phosphate buffer, pH 7.0, containing 1 mM EDTA and 0.1% gelatin, resuspended in fresh buffer (5 x 10⁷ cells/ml) and disrupted by nitrogen cavitation using the Parr bomb at 750 psi for 10 min. The broken cell extract was then centrifuged at 10,000 x g for 20 minutes (min) and the supernatant was centrifuged at 100,000 x g for 60 min. Aliquots (0.25 mls) of the supernatant were preincubated with or without drugs for 10 min, after which 10 ul CaCl₂ (2 mM) was added and the reaction was initiated with 2.5 »l of 2.5 mM arachidonic acid-1-¹⁴C (final concentration was 25 »M; specific activity 20,000 dpm/nmole). After incubation for 5 minutes at 37°C, the reaction was terminated by addition of 2 volumes (0.5 ml) ice cold acetone and the sample was allowed to deproteinize on ice for 10 minutes prior to centrifugation at 1,000 x g for 10 minutes. The deproteinized supernatant was adjusted to pH 3.5 with 2N formic acid and extracted with 2 volumes of ice cold ethyl acetate. The extracted samples were dried under argon, redissolved in ethyl acetate and applied to Whatman LK5D thin layer chromatography (TLC) plates which were developed using the A-9 solvent system [organic phase of ethyl acetate: […]:acetic acid: water (110:50:20:10)] described by Hamberg and Samuelsson, J. Biol. Chem., 241, 257-263 (1966). Arachidonic acid, 5-HETE, LTB₄ and PGD₂ were quantified with a Berthold LB 2832 autoscanner.
Under these conditions, only the 5-lipoxygenase pathway metabolites were detectable. The 5-HETE and di-HETEs were formed at a linear rate, and […] amounts of the arachidonic acid-1-¹⁴C substrate were utilized.

A short description of series [2]: Log D determination by high pressure liquid chromatography. It counts as physicochemical. The note with it: hplc ods, mobile phase MeOH:H2O, pH 7.4, read-out: (Log D) (Lipophilicity). The protocol:
The procedure used to determine the log D's listed on Table VI was as follows. A 20 »l sample was injected into a Shandon Hypersil ODS, 5» (100 mm x 4.6 mm ID) column and was eluted using a mobile phase of […] MeOH:H₂O (The aqueous portion was .01 M in KH₂PO₄ and adjusted to pH 7.4 with KOH after mixing the MeOH), at a flow rate of 2 ml per minute. Eluting peaks were detected by UV absorbance at […]. All samples were made up at 0.1 mg/ml. (Retentions were identical at 0.01 mg/ml.)
The data was analyzed by determining the regression line corresponding to the log k′ vs. literature log P of the reference standards.
The reference standards and their literature log P's included NaNO₂, 0.0; acetanalide, 1.16; acetophenone, 1.66; anisole, 2.08; chlorobenzene, 2.84; benzophenone, 3.18; anthracene, 4.45; and pentachlorobenzene, 5.12.

The nature of series [3]: Cytochrome P-450 inhibition (ethoxycoumarin-O-deethylase activity, phenobarbital-induced microsomes). The settings on record: rat, liver microsomes.
The mark [4] stands for this setting: LTB4 production by RBL-1 high speed supernatant.

Regarding `CSc1ccc(-c2nc3n(c2-c2ccncc2)CCC3)cc1` [Compound 1, 2-(4-Methylthiophenyl)-3-(4-pyridyl)-6,7-dihydro-[5H]-pyrrolo[1,2-a]imidazole], the ED50 in series [1] was 20 mg/kg. The IC50 at 5-Lipoxygenase (setting [4]) worked out at 20 µM; in series [3], 43.7 µM. Also, the chromatographic logD in series [2] came out at 2.68.

Turning to `C[S+]([O-])c1ccc(-c2nc3n(c2-c2ccncc2)CCC3)cc1` (stereo not shown) [Compound 2, 2-(4-Methylsulfinylphenyl)-3-(4-pyridyl)-6,7-dihydro-[5H]-pyrrolo[1,2-a]imidazole], in series [1] (Mus musculus, 1 h, 50 mg/kg p.o., ear thickness one hour after 2 mg arachidonic acid), at 50 mg/kg the inhibition was 44%. Moreover, the ED50 in series [1] stood at 44 mg/kg. Further, the 50% inhibitory concentration (IC50) is greater than 100 µM at 5-Lipoxygenase (setting [4]); greater than 100 µM at 5-Lipoxygenase (total HETE and Di-HETE production by RBL-1 high speed supernatant); 866 µM in series [3]. For the same compound, the chromatographic logD in series [2] came to 0.85.

Usually IC50 stands for the point on the concentration scale where inhibition reaches its midpoint. In general, inhibition refers to how much of the control response was suppressed.
